Source: US20120053076A1, “METHODS FOR IDENTIFICATION” (Cambridge Enterprise Limited, priority 2009, published 2012)

Tests used:
THP-1 cells = experiment: MCP-1 induced THP-1 cell migration, Transwell assay; assay type: cell-based, human
Method: Leukocyte migration was measured using the 96-well format micro Transwell® assay system from Neuroprobe (Gaithersburg, Md., USA). In principle, this assay consists of two chambers separated by a porous membrane. The chemoattractant is placed in the lower compartment and the cells are placed in the upper compartment.
The method was performed essentially as previously described (Reckless & Grainger (1999) Biochem. J. 340:803-11).
First, the cell suspension to be placed in the upper compartment was prepared. The THP-1 cells were pelleted by centrifugation (770×g; 4 mins) and washed with Geys Balanced Salt Solution with 1 mg/ml BSA (GBSS+BSA). This wash was then repeated, and the cells re-pelleted before being resuspended in a small volume of GBSS+BSA for counting, for example using a standard haemocytometer.
The volume of GBSS+BSA was then adjusted depending on the number of cells present so that the cells were at final density of 4.45×10^6 cells per ml of GBSS+BSA. This ensured that there were 100,000 THP-1 cells in each 25 μl of the solution to be placed in the upper chamber of the plate.
The suspension of THP-1 cells at 4.45×10^6 cells/ml was divided into three pots. […] To the second pot, the BSCI was added at the same concentration as in the first pot, but additionally the sstr2 antagonist was also added (for example BIM 23454 [Tulipano et al. (2002) 143:1218-24] or BIM 23627 were added at 66 nM final concentration from a stock solution in GBSS). To the third pot, GBSS+BSA plus vehicle as appropriate was added so that the volumes in three pots are equal, acting as a control.
Next, the chemoattractant solution to be placed in the lower compartment was prepared. MCP-1 was diluted in GBSS+BSA to give a final concentration of 25 ng/ml (after all additions). Note that, as recommended by Frow et al (Med. Res. Rev. 24:276-98) this is the concentration of MCP-1 which induces maximal migration in this system. This solution was divided into three pots, as for the cell suspension. To one pot, the BSCI was added to the same final concentration as was added to the cell suspension, in the second pot the BSCI and the sstr2 antagonist were both added at the same concentration as previously added to the cell suspension, while to the remaining pot GBSS+BSA plus vehicle as appropriate was added so that the volumes in the three pots were equal.
Once the chemoattractant solutions for the lower wells and cell solutions for the upper chambers were prepared, the migration chamber was assembled. 29 μl of the appropriate chemoattractant solution was placed into the lower well of the chamber. Assays were performed with at least triplicate determinations of each condition. Once all the lower chambers were filled, the porous membrane was applied to the chamber in accordance with the manufacturer's instructions. Finally, 25 μl of the appropriate cell solution was applied to each upper chamber. A plastic lid was placed over the entire apparatus to prevent evaporation.
The assembled chamber was incubated at 37° C., 5% CO2, for 2 hours.
At the end of the incubation, the liquid cell suspension was gently removed from the upper chamber, 20 μl of ice-cold 20 mM EDTA in PBS was added to the upper chamber, and the apparatus was incubated at 4° C. for 15 mins. This procedure caused any cells adhering to the underside of the membrane to fall into the lower chamber.
After this incubation the filter was carefully flushed with GBSS+BSA to wash off the EDTA, and then the filter was removed.
The number of cells migrated into the lower chamber under each condition can then be determined by a number of methods, including direct counting, labelling with fluorescent or radioactive markers or through the use of a vital dye. Typically, we utilised the vital dye MTT.

Jurkat T cells = experiment: SDF-1α induced migration of parental Jurkat T cells; assay type: cell-based, human
Method: Results: The level of the SDF-1α, receptor CXCR4 was similar on Jurkat-D3B and the parental Jurkat T cell line. Furthermore, the Jurkat-D3B cells responded to SDF-1α in a Transwell® chemotaxis assay (see Example 1 for the methodology employed) over a similar concentration range to the parental cell line.
Jurkat T cells and Jurkat-D3B cells were induced to migrate in response to 100 ng/ml SDF-1α (R&D systems; the concentration of SDF-1α which induced maximal cell migration in both lines). The BSCI BN83250 was then added at various concentrations between 0 nM and 1000 nM (each in triplicate) to both the upper and lower compartments (at the same concentration in each compartment, so as not to create a gradient of BSCI concentration). DMSO (1% final concentration) was used as the vehicle, and was present in all wells at equal concentration.

Oral bioavailability = conditions: in vivo
sstr2 = molecular target: T1, sstr2 (Homo sapiens, UniProt P30874); experiment: Equilibrium binding of [3H]-BN83250 to THP-1 cells; conditions: competition with [3H]-BN83250
T1 construct: with 1×10^6 THP-1 cells in Gey's Balanced Salt Solution; endogenous in cells; host or cells: THP-1 cells (whole cells, 4° C.)
Method: Methods: [^3H]-BN83250 was synthesesized from (S,E)-3-(2′,2′-dimethyldodec-4′-enoylamino)-caprolactam by catalytic hydrogenation using tritium gas over a palladium catalyst (CRB Ltd, Cleveland, UK), yielding the tritiated product at a concentration of […] in ethanol with a specific activity of 220 Ci/mmol. The (S,E)-3-(2′,2′-dimethyldodec-4′-enoylamino)-caprolactam was prepared as follows: (S,S)-3-amino-caprolactam hydro-pyrrolidine-5-carboxylate (10 mmol) and Na2CO3 (30 mmol) in water (30 ml) were added to a solution of 2,2-dimethyl-dodec-4-enoyl chloride (10 mmol) in dichloromethane (30 ml) at ambient temperature and the reaction was stirred for 12 hours. The organic layer was then separated and the aqueous phase was extracted with additional dichloromethane (2×25 ml). The combined organic layers were dried over Na2CO3 and reduced in vacuo. The residue was purified by silica column chromatography (1:1 EtOAc:hexanes to EtOAc) to give […]-3-(2′,2′-dimethyl-dodec-4′-enoyl)amino-caprolactam as a colourless oil (2.12 g, 63%). The radiolabelled compound was stored in the dark at 4° C. until required. Prior to use the specific activity was adjusted by addition of unlabelled BN83250.
For the analysis of binding, individual reactions were set up (in triplicate for each condition), with 1×10^6 THP-1 cells in Gey's Balanced Salt Solution, 10 nM [^3H]-BN83250 (at 50 Ci/mmol) and various concentrations of (S)-3(2′2′-dimethylpropionoylamino)-tetrahydropyridin-2-one (10 pM to 10 μM). Excess (100 μM) unlabelled BN83250 was used to determine the level of non-specific binding. After 2 hours at 4° C. (conditions previously shown to achieve equilibrium binding, and which prevent uptake of the radioligand that would result in an over-estimate of binding) excess label was washed away by centrifugation (3 washes with 5 ml of Gey's Balanced Salt Solution) and the bound radioactivity was determined by scintillation counting of the solubilised cell pellet.

T1 sequence (P30874 whole entry): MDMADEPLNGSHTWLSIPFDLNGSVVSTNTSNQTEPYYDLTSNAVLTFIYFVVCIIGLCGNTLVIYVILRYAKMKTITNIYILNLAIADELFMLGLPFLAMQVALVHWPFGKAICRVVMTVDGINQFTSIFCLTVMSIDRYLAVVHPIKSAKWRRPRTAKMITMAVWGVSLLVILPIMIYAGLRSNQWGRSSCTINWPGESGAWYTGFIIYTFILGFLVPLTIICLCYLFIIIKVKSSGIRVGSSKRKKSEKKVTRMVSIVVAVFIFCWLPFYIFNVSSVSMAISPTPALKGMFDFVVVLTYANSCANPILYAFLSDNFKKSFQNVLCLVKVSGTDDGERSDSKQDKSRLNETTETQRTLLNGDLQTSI

(S)-3-(2′,2′-dimethyldodecanoyl)amino-caprolactam [BN83250]
Human chemokine-induced THP-1 migration assay Max effect (THP-1 cells; Table 3): 100% | Chemokine-induced THP-1 cell migration assay (“BSCI” target) Max Effect (THP-1 cells; Table 5): 100% | Inhibition of SDF-1α induced migration of Jurkat T cells, in words (Jurkat T cells): little or no effect | Oral bioavailability, in words (Oral bioavailability): only poorly orally bioavailable

CC(C)(C)C(=O)N[C@H]1CCCNC1=O [Valerolactam, (S)-3-(2′,2′-dimethylpropionoylamino)-tetrahydropyridin-2-one]
Hill Slope (sstr2): approximately −1.0 | Emax (THP-1 cells; Homo sapiens, THP-1, read-out: Human chemokine-induced THP-1 migration assay Max effect): 100% | Inhibition of MCP-1 induced THP-1 cell migration, in words (THP-1 cells; MCP-1 25 ng/ml): inhibits MCP-1 induced cell migration in a dose-dependent manner
